Laboratory results from patent publication EP2364976B1, “S1P receptor modulating compounds and use thereof” (EPIX Pharmaceuticals, Inc., priority 2007, dated 2007).
pEC50: −log10 of the molar value.

Target: T1, hS1P1 (Homo sapiens, UniProt P21453)
T1 construct: expressed in transfected cells
Assay: hS1P1 EC50 (S1P receptor Ca2+ flux protocol, FLIPR, CHO K1 Gqi5 cells)
Type: cell-based
Conditions: several values per compound = repeat determinations as printed
Description: S1P receptor activity may also be measured by an SIP receptor (e.g., hS1P1, hS1P3, rS1P1, rS1P3 and parental cell) Ca^2+ Flux protocol as described below: • 1. Material • a. FLIPR buffer: 1x HBSS; 10mM HEPES • b. Cell growth media: • i. human and rat S1P1 and S1P3: F12-Ham's media; 10% FBS (qualified); 1x Pen/Strep/Glu; 300ug/mL Hygromycin; 400ug/mL Geneticin ii. Parental cell: human and rat S1P and S1P3: F12-Ham's media; 10% FBS (qualified); 1x Pen/Strep/Glu; 300ug/mL Hygromycin; • c. Cell seeding media; F12-Ham's media; 10% FBS (Charcoal/dextran stripped); 1x Pen/Strep/Glu; • d. Cell dissociation buffer: Versene from Invitrogen • e. Agonist (SIP) dissolving buffer: 0.4% (w/v) fatty-acid free BSA (Sigma # A8806) in FLIPR buffer • f. FLIPR dye: BD PBX Calcium assay kit; Cat#641077 is composed of Calcium indicator (Cat#850000) and 100x PBX signal enhancer (cat#850001). The 100x PBX signal enhancer is diluted into FLIPR buffer 1:100 and the calcium indicator is then added at 1:1000 ratio. • g. Cell plates (96-well): Greiner Cat#655090 • h. Compound plates (96-well): Costar #3365 • i. S1P stock solution preparation: S1P is purchased from CalBioChem (Catalog # 970471; 1mg vial; custom prep using methanol, & nitrogen gas drying inside glass vial; Storage @ -20°C). Dissolve 1 vial of SIP into 26.4ml of agonist dissolving buffer in a 50ml centrifuge tube; Remove label from bottle of SIP, open and drop entire bottle into tube. Sonicate at 37° for ½ hour. Clear solution of 100µM will result. This stock solution is aliquoted and stored at -80C • 2. Cell line maintenance • a. V5 tags were added at the N-terminus of hS1P1, hS1P3, rS1P1 and rS1P3. All four genes were transfected into CHO K1 cells which stably express Gqi5. • b. hS1P1 and hS1P3 were established as stable clones and rS1P1 and rS1P3 were sorted by anti V5 tag and established as stable pools after sorting. • c. Parental cell line CHO/K1 Gqi5 is used as the control. • d. All the cells are maintained in cell growth media and splitted twice a week using Versene. • e. All the cell lines are used under passage 30. • 3. Assay protocol • a. Cell seeding: Cells are lifted from the flask by Versene and seeded in cell plates at 50K/well in cell seeding media. Cells are grown overnight at 37 degree. • b. Cell loading: Cell seeding media is discarded. Cells are loaded with 50ul of FLIPR dye at RT for 90 min. Signal is stable for up to 5 h after dye loading. • c. Agonist (S1P) preparation: Frozen stock of S1P is thawed out and sonicated at 37c for 30 minutes every time before use. The stock is then diluted into FLIPR buffer at proper concentration. • d. Compound preparation: Compounds are dissolved in DMSO. A 3x, 10 point dilution of the compounds are carried out in DMSO. Then the compounds are diluted into assay buffer133x so that the DMSO concentration is 0.75%. • e. Activity measurement: The fluorescence signal change of the cells upon compound addition is monitored in FLIPRtetra. 25ul of compound is transferred into the cell plates (50ul of FLIPR dye; DMSO concentration: 0.25%). Signal is recorded for 90sec after compound addition. Then 50ul of 500nM SIP is added in the cell plate, and signal is recorded for 90 seconds upon addition. • 4. Data analysis • a. Peak value is calculated for each compound/S1P addition • b. The peak value of S1P at 200nM is used as high control (100%), and the peak value of buffer only is used as low control (0%). • c. Data is normalized against high and low controls using the following equation: POC_S = 100*(RAW-LO)/(HI-LO) [formula] • d. Peak value is plotted against the concentration of compound. • e. Curve is fitted using the 4 parameter fit: Y = (A+(B/(1+(((x/C))^(∧)D)))) [formula] where: Y is POC_S (or POC) • X is compound concentration • A is the minimum (EC50min or IC50min) • B is the maxmum (EC50max or IC50max) • C is the inflection point (EC50IP or IC50IP) • D is the hill slope (EC50 slope or IC50 slope).

T1 sequence (P21453 whole entry): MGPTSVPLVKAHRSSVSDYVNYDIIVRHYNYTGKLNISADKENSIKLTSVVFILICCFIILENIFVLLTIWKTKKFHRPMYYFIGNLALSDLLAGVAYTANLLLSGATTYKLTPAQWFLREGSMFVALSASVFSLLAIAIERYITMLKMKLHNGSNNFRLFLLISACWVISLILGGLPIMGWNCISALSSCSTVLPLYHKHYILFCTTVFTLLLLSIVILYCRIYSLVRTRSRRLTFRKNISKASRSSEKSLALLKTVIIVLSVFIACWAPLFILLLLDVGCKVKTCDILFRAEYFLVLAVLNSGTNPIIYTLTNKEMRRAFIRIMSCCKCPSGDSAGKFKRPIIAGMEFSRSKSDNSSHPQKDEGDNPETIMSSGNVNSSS

SMILES | pEC50
CCCCOc1ccc2oc(-c3ccc(CN4CC(C(=O)O)C4)cc3Cl)cc2c1 [Reference Compound 50, 1-((4-(5-Butoxybenzofuran-2-yl)-3-chlorophenyl)methyl)azetidine-3-carboxylic acid] | 6.58
O=C(O)C1CN(Cc2ccc(-c3cc4cc(C5CCCC5)ccc4o3)c(Cl)c2)C1 [Reference Compound 51, 1-((3-chloro-4-(5-cyclopentylbenzofuran-2-yl)phenyl)methyl)azetidine-3-carboxylic acid] | 6.25
O=C(O)C1CN(Cc2ccc(-c3cc4cc(N5CCOCC5)ccc4o3)c(F)c2)C1 [Reference Compound 53, 1-((3-fluoro-4-(5-morpholinobenzofuran-2-yl)phenyl)methyl)azetidine-3-carboxylic acid] | 5.68
O=C(O)C1CN(Cc2ccc(-c3cc4cc(Cc5ccccc5)ccc4o3)c(F)c2)CCO1 (centres unmarked) [Reference Compound 54, 4-((4-(5-benzylbenzofuran-2-yl)-3-fluorophenyl)methyl)morpholine-2-carboxylic acid] | 5.73
O=C(O)C1CN(Cc2ccc(-c3cc4cc(OCC5CCCC5)ccc4o3)c(F)c2)CCO1 (centres unmarked) [Reference Compound 55, 4-((4-(5-(cyclopentylmethoxy)benzofuran-2-yl)-3-fluorophenyl)methyl)morpholine-2-carboxylic acid] | < 4.60
O=C(O)CCN1CCc2cc(-c3cc4cc(OCC5CCCC5)ccc4o3)ccc2C1 [Reference Compound 57, 3-(6-(5-(cyclopentylmethoxy)benzofuran-2-yl)-3,4-dihydroisoquinolin.2(1H)-yl)propanoic acid] | 6.06
O=C(O)CCNCc1ccc(-c2cc3cc(C4CCCC4)ccc3o2)c(F)c1 [Reference Compound 58, 3-(4-(5-cyclopentylbenzofuran-2-yl)-3-fluorobenzylamino)propanoic acid] | 5.97
O=C(O)C1CN(Cc2ccc(-c3cc4cc(C5CCOCC5)ccc4o3)c(F)c2)C1 [Reference Compound 61] | 6.68
O=C(O)[C@@H]1CCCN(Cc2ccc(-c3cc4cc(Cc5ccccc5)ccc4o3)c(F)c2)C1 [Reference Compound 62, (3R)-1-((4-(5-Benzylbenzofuran-2-yl)-3-fluorophenyl)methyl)piperidine-3-carboxylic acid] | 5.26
O=C(O)[C@H]1CCCN(Cc2ccc(-c3cc4cc(Cc5ccccc5)ccc4o3)c(F)c2)C1 [Reference Compound 63, (3S)-1-((4-(5-Benzylbenzofuran-2-yl)-3-fluorophenyl)methyl)piperidine-3-carboxylic acid] | 5.48
O=C(O)C1CN(Cc2ccc(-c3cc4cc(Sc5ccccc5)ccc4o3)c(F)c2)C1 [Reference Compound 64] | 6.85
O=C(O)C1CN(Cc2ccc(-c3cc4cc([S+]([O-])c5ccccc5)ccc4o3)c(F)c2)C1 (centres unmarked) [Reference Compound 65] | 7.17
O=C(O)C1CN(Cc2ccc(-c3cc4cc(COCC5CC5)ccc4o3)c(F)c2)C1 [Reference Compound 66] | 7.12
O=C(O)C1CN(Cc2ccc(-c3cc4cc(COC5CCC5)ccc4o3)c(F)c2)C1 [Reference Compound 67, 1-(4-(5-(Cyclobutoxymethyl)benzofuran-2-yl)-3-fluoro-benzyl)azetidine-3-carboxylic acid] | 7.60
O=C(O)C1CN(Cc2ccc(-c3cc4ccccc4o3)c(F)c2)C1 [Reference Compound 68, 1-(4-(benzofuran-2-yl)-3-fluoro-benzyl)azetidine-3-carboxylic acid] | 6.15
O=C(O)C1CN(Cc2ccc(-c3cc4cc(COc5ccccc5)ccc4o3)c(F)c2)C1 [Reference Compound 69, 1-(3-Fluoro-4-(5-(phenoxymethyl)benzofuran-2-yl)benzyl)azetidine-3-carboxylic acid] | 7.06
O=C(O)C1CN(Cc2ccc(-c3cc4cc(COC5CCCCC5)ccc4o3)c(F)c2)C1 [Reference Compound 70] | 7.04
O=C(O)C1CN(Cc2ccc(-c3cc4cc(Cc5ccc(F)cc5)ccc4o3)c(F)c2)C1 [Reference Compound 73, 1-(3-fluoro-4-(5-(4-fluorobenzyl)benzofuran-2-yl)benzyl)azetidine-3-carboxylic acid] | 7.28
O=C(O)C1CN(Cc2ccc(-c3cc4cc(CC5CCCCC5)ccc4o3)c(F)c2)C1 [Reference Compound 74, 1-(4-(5-(Cyclohexylmethyl)benzofuran-2-yl)-3-fluorobenzyl)azetidine-3-carboxylic acid] | 6.40
O=C(O)C1CN(Cc2ccc(-c3cc4cc(Cc5ccccc5F)ccc4o3)c(F)c2)C1 [Reference Compound 75, 1-(3-Fluoro-4-(5-(2-fluorobenzyl)benzofuran-2-yl)benzyl)azetidine-3-carboxylic acid] | 6.89
O=C(O)C1CN(Cc2ccc(-c3cc4cc(Cc5cccc(F)c5)ccc4o3)c(F)c2)C1 [Reference Compound 76, 1-(3-Fluoro-4-(5-(3-fluorobenzyl)benzofuran-2-yl)benzyl)azetidine-3-carboxylic acid] | 6.77
O=C(O)C1CN(Cc2ccc(-c3cc4cc(Oc5ccccc5)ccc4o3)c(F)c2)C1 [Reference Compound 77, 1-(3-Fluoro-4-(5-phenoxybenzofuran-2-yl)benzyl)azetidine-3-carboxylic acid] | 7.89
Fc1cc(CN2CC(c3nn[nH]n3)C2)ccc1-c1cc2cc(Cc3ccccc3)ccc2o1 [Reference Compound 78, 5-(1-(4-(5-Benzylbenzofuran-2-yl)-3-fluorobenzyl)azetidin-3-yl)-2H-tetrazole] | 5.68
O=C(O)C1CN(Cc2ccc(-c3ccc4oc(Cc5ccccc5)cc4c3)c(F)c2)C1 [Reference Compound 80, 1-(4-(2-Benzylbenzofuran-5-yl)-3-fluorobenzyl)azetidine-3-carboxylic acid] | 7.23
O=C(O)C1CN(Cc2ccc(-c3cc4cc(Cc5ccccc5)ccc4s3)c(F)c2)C1 [Reference Compound 81, 1-(4-(5-Benzylbenzo[b]thiophen-2-yl)-3-fluorobenzyl)azetidine-3-carboxylic acid] | 7.96
CC(CNCc1ccc(-c2cc3cc(Cc4ccccc4)ccc3o2)c(F)c1)C(=O)O (centres unmarked) [Reference Compound 82, 3-(4-(5-Benzylbenzofuran-2-yl)-3-fluorobenzylamino)-2-methylpropanoic acid] | 5.89
NC(=O)CC(NCc1ccc(-c2cc3cc(Cc4ccccc4)ccc3o2)c(F)c1)C(=O)O (centres unmarked) [Reference Compound 83, 4-Amino-2-(4-(5-benzylbenzofuran-2-yl)-3-fluorobenzylamino)-4-oxobutanoic acid] | 5.64
O=C(O)C1CN(Cc2cnc(-c3cc4cc(Cc5ccccc5)ccc4o3)c(F)c2)C1 [Reference Compound 84, 1-((6-(5-Benzylbenzofuran-2-yl)-5-fluoropyridin-3-yl)methyl)azetidine-3-carboxylic acid] | 6.33
NC(=O)C(CC(=O)O)NCc1ccc(-c2cc3cc(Cc4ccccc4)ccc3o2)c(F)c1 (centres unmarked) [Reference Compound 85, 4-Amino-3-(4-(5-benzylbenzofuran-2-yl)-3-fluorobenzylamino)-4-oxobutanoic acid] | 5.73
